In patent publication US12371428B2 (Exelixis, Inc., priority 2019, dated 2025):
Counter-ions that a name gives are not always drawn.

Experiments:
[1] = molecular target: Human KDR (residues 790-1356) (Homo sapiens (Human), UniProt P35968); experiment: Human KDR kinase assay, HTRF KinEase (Example B-2); type: biochemical; settings: protocol of Example B-2 (other compounds)
Method in brief: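 Human KDR residues 790-1356 (0.1 ng/well) in buffer with 5 mM MgCl2, 1 mM MnCl2, 1 mM DTT, biotinylated peptide substrate, ATP at Km (4.0 μM), 3% DMSO, 10 compound concentrations; 40 min, room temperature. EDTA stop, streptavidin-XL665/Eu-TK antibody HTRF read 665/620 nm; 4-parameter IC50.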

[2] = molecular target: Human MER (residues 528-999) (Homo sapiens (Human), UniProt Q12866); experiment: Human Mer kinase assay, HTRF KinEase (Example C-2); type: biochemical; settings: protocol of Example C-2 (other compounds)
Sequence of Human MER (residues 528-999) (Q12866 528-999): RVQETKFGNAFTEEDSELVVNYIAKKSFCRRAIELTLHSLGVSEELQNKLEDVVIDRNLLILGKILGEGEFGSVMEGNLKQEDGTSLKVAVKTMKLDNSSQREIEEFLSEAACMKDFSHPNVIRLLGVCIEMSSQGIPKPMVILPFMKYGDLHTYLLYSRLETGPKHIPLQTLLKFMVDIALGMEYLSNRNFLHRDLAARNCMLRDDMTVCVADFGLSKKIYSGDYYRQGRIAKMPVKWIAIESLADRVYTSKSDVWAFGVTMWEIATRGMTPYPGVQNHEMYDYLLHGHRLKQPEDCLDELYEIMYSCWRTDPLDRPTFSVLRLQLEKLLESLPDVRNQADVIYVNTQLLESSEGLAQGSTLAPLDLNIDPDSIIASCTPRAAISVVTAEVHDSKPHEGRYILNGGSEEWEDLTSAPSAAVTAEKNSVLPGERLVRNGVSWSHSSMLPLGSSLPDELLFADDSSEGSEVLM
Method in brief: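 HTRF KinEase TK assay with MER 528-999 (1 ng/well) in enzymatic buffer plus 5 mM MgCl2 and 1 mM DTT, biotinylated peptide substrate and ATP at Km (40 μM), 3% DMSO final, 60 min at room temperature. Stopped with EDTA detection mix (SA-XL665, TK antibody-Eu3+), read at 665/620 nm after 60 min; IC50 from 10-point 4-parameter fit, normalized to DMSO and 1 μM reference.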

[3] = molecular target: Human MET (residues 956-1390) (Homo sapiens (Human), UniProt P08581); experiment: Human Met kinase assay, HTRF KinEase (Example D-2); type: biochemical; settings: protocol of Example D-2 (other compounds); read-out: c-Met IC50
Sequence of Human MET (residues 956-1390) (P08581 956-1390): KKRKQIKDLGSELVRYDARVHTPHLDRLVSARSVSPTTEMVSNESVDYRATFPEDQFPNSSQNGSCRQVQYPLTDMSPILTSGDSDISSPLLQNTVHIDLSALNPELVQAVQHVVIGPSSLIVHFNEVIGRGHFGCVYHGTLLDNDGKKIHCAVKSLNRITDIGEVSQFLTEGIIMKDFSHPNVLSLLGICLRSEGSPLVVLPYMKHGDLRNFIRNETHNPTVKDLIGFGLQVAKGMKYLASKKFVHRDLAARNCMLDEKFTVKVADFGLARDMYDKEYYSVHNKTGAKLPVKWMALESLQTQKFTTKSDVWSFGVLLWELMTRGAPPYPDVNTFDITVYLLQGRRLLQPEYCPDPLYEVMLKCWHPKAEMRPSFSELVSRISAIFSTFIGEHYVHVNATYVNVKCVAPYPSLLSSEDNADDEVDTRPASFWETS
Method in brief: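 HTRF KinEase assay on MET residues 956-1390 (0.1 ng/well) in buffer with 5 mM MgCl2, 1 mM DTT and 1 mM MnCl2, with biotinylated peptide substrate, ATP at Km, 10 compound concentrations and 3% DMSO final, run 40 min at room temperature. The […] signal was normalized to DMSO and to 1 μM reference compound, and IC50 came from a 4-parameter logistic fit.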

[4] = molecular target: Mer (phospho-Mer, MERTK-transfected 293A cells) (Homo sapiens (Human), UniProt Q12866); experiment: Mer autophosphorylation ELISA in transient transfected 293A cells (Example H); type: cell-based; settings: cellular activity; Mer autophosphorylation ELISA in transient transfected 293A cells
Sequence of Mer (phospho-Mer, MERTK-transfected 293A cells) (Q12866 21-999): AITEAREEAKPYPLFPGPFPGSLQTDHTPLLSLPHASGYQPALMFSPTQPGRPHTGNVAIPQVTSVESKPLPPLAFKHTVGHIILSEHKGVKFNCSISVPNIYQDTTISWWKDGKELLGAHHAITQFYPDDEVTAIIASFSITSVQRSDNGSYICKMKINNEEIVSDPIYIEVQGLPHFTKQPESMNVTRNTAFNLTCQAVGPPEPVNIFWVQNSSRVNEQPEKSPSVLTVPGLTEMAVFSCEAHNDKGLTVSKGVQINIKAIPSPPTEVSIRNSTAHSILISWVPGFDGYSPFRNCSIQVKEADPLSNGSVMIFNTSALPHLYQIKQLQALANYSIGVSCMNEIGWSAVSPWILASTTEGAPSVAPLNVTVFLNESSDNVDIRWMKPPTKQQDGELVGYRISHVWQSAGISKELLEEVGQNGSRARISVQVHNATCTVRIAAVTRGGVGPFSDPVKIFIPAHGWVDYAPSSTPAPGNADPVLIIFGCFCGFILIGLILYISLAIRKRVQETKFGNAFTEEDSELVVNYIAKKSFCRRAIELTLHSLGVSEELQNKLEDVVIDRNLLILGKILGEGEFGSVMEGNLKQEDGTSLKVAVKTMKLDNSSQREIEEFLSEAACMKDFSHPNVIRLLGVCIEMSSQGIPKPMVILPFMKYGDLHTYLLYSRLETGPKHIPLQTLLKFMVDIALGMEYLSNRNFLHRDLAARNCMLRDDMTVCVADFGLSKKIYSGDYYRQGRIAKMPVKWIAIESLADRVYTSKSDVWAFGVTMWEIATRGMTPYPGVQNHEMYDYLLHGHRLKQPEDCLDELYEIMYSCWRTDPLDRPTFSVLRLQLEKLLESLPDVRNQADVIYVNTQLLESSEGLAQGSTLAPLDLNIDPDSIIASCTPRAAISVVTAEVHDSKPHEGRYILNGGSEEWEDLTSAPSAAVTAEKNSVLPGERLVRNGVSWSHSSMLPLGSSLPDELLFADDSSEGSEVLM
Method in brief: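 Human MERTK transiently transfected into 293A cells; compounds as 8-point dose curve in serum-free medium (0.3% DMSO final), 1 h. Lysates assayed by phospho-Mer sandwich ELISA against phospho-Mer standard; DMSO = 100%, reference inhibitor = 0% activity; IC50 from 4-parameter logistic fit.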

Sequence of Human KDR (residues 790-1356) (P35968 790-1356): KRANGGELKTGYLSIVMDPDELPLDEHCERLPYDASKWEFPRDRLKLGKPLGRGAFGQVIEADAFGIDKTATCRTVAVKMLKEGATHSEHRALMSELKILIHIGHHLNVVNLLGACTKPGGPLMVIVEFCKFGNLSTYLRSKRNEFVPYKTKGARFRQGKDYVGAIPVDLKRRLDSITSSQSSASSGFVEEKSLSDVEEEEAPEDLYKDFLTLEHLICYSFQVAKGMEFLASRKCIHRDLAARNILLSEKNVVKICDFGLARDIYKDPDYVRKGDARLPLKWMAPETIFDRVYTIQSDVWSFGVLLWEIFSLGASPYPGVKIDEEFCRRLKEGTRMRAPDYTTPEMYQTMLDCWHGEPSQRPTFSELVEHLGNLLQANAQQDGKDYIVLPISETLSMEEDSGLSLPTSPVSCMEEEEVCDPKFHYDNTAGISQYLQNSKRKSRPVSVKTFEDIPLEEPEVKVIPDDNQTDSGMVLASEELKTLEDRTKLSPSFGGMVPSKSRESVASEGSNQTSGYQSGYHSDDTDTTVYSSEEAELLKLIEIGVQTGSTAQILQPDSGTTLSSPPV

| SMILES | IC50 [1] [nM] | IC50 [2] [nM] | IC50 [3] [nM] | IC50 [4] [nM] |
| --- | --- | --- | --- | --- |
| COc1ccc2nccc(Oc3ccc(NC(=O)c4cn(C(C)C)c(C)c(-c5ccc(F)cc5)c4=O)cc3)c2n1 [Compound 341, 5-(4-fluorophenyl)-N-[4-[(6-methoxy-1,5-naphthyridin-4-yl)oxy]phenyl]-6-methyl-4-oxo-1-propan-2-ylpyridine-3-carboxamide] | > 300 | < 100 | < 100 | < 100 |
| Cc1nc(C)c(-c2ccc(F)cc2)c(O)c1C(=O)Nc1ccc(Oc2ccnc3ccc(OCCN(C)C)nc23)c(F)c1 [Compound 354, N-[4-[[6-[2-(dimethylamino)ethoxy]-1,5-naphthyridin-4-yl]oxy]-3-fluorophenyl]-5-(4-fluorophenyl)-4-hydroxy-2,6-dimethylpyridine-3-carboxamide] | 100 to 300 | < 100 | < 100 | < 100 |
| COCCOc1ccc2nccc(Oc3ccc(NC(=O)c4ccc(C)n(-c5ccc(F)cc5)c4=O)cc3F)c2n1 [Compound 350, N-[3-fluoro-4-[[6-(2-methoxyethoxy)-1,5-naphthyridin-4-yl]oxy]phenyl]-1-(4-fluorophenyl)-6-methyl-2-oxopyridine-3-carboxamide] | 100 to 300 | < 100 | < 100 | < 100 |
| COc1cnc2c(Oc3ccc(NC(=O)c4cn(C)cc(-c5ccccc5)c4=O)cc3F)ccnc2c1 [Compound 40, N-[3-Fluoro-4-[(7-methoxy-1,5-naphthyridin-4-yl)oxy]phenyl]-1-methyl-4-oxo-5-phenylpyridine-3-carboxamide hydrochloride] | > 300 | < 100 | < 100 | < 100 |
| COc1ccc2nccc(Oc3ccc(NC(=O)c4c(C)cc(C)n(-c5ccc(F)cc5)c4=O)cc3)c2n1 [Compound 290, 1-(4-Fluorophenyl)-N-[4-[(6-methoxy-1,5-naphthyridin-4-yl)oxy]phenyl]-4,6-dimethyl-2-oxopyridine-3-carboxamide] | < 100 | < 100 | 100 to 300 | < 100 |
| COc1cnc2c(Oc3ccc(NC(=O)c4nccn(-c5ccc(F)cc5)c4=O)cc3)ccnc2c1 [Compound 382, 4-(4-fluorophenyl)-N-[4-[(7-methoxy-1,5-naphthyridin-4-yl)oxy]phenyl]-3-oxopyrazine-2-carboxamide] | > 300 | < 100 | < 100 | < 100 |
| COc1cnc2c(Oc3ccc(NC(=O)c4ncc(C)n(-c5ccc(F)cc5)c4=O)cc3)ccnc2c1 [Compound 263, 4-(4-Fluorophenyl)-N-[4-[(7-methoxy-1,5-naphthyridin-4-yl)oxy]phenyl]-5-methyl-3-oxopyrazine-2-carboxamide] | > 300 | < 100 | < 100 | < 100 |
| COc1ccc2nccc(Oc3ccc(NC(=O)c4cnc(C)c(-c5ccc(F)cc5)c4O)cc3F)c2c1 [Compound 347, N-[3-fluoro-4-(6-methoxyquinolin-4-yl)oxyphenyl]-5-(4-fluorophenyl)-4-hydroxy-6-methylpyridine-3-carboxamide] | 100 to 300 | < 100 | < 100 | < 100 |
| COc1ccc2nccc(Oc3ccc(NC(=O)c4cccn(-c5ccc(F)cc5)c4=O)cc3F)c2n1 [Compound 292, N-[3-Fluoro-4-[(6-methoxy-1,5-naphthyridin-4-yl)oxy]phenyl]-1-(4-fluorophenyl)-2-oxopyridine-3-carboxamide] | > 300 | < 100 | < 100 | < 100 |
| COCc1ncc(C(=O)Nc2ccc(Oc3ccnc4cc(OC)c(OC)nc34)c(F)c2)c(O)c1-c1ccc(F)cc1 [Compound 301, N-[4-[(6,7-Dimethoxy-1,5-naphthyridin-4-yl)oxy]-3-fluorophenyl]-5-(4-fluorophenyl)-4-hydroxy-6-(methoxymethyl)pyridine-3-carboxamide] | < 100 | < 100 | < 100 | < 100 |
| COc1cc2nccc(Oc3cc(F)c(NC(=O)c4cn(C)c(C)c(-c5ccc(F)cc5)c4=O)cc3F)c2nc1OC [Compound 391, N-[4-[(6,7-dimethoxy-1,5-naphthyridin-4-yl)oxy]-2,5-difluorophenyl]-5-(4-fluorophenyl)-1,6-dimethyl-4-oxopyridine-3-carboxamide] | 100 to 300 | < 100 | < 100 | < 100 |
| CCn1cc(C(=O)Nc2ccc(Oc3ccnc4cc(OC)cnc34)c(F)c2)c(=O)c(-c2ccc(F)cc2C)c1CO [Compound 285, 1-Ethyl-N-[3-fluoro-4-[(7-methoxy-1,5-naphthyridin-4-yl)oxy]phenyl]-5-(4-fluoro-2-methylphenyl)-6-(hydroxymethyl)-4-oxopyridine-3-carboxamide] | > 300 | < 100 | < 100 | < 100 |
| COc1cc2nccc(Oc3ncc(NC(=O)c4cn(C5CN(C)C5)cc(-c5ccc(F)cc5)c4=O)cc3F)c2cc1OC [Compound 400, N-[6-(6,7-dimethoxyquinolin-4-yl)oxy-5-fluoropyridin-3-yl]-5-(4-fluorophenyl)-1-(1-methylazetidin-3-yl)-4-oxopyridine-3-carboxamide] | > 300 | < 100 | < 100 | < 100 |
| Cc1cc(C)n(-c2ccc(F)cc2)c(=O)c1C(=O)Nc1ccc(Oc2ccnc3cccnc23)c(F)c1 [Compound 295, N-[3-Fluoro-4-(1,5-naphthyridin-4-yloxy)phenyl]-1-(4-fluorophenyl)-4,6-dimethyl-2-oxopyridine-3-carboxamide] | < 100 | < 100 | < 100 | < 100 |
| COc1ccc2nccc(Oc3ccc(NC(=O)c4c(C)ccn(-c5ccc(F)cc5)c4=O)cc3F)c2n1 [Compound 287, N-[3-Fluoro-4-[(6-methoxy-1,5-naphthyridin-4-yl)oxy]phenyl]-1-(4-fluorophenyl)-4-methyl-2-oxopyridine-3-carboxamide] | < 100 | < 100 | 100 to 300 | < 100 |
| COc1ccc2nccc(Oc3ccc(NC(=O)c4c(C)cc(C)n(-c5ccc(F)cc5)c4=O)cc3F)c2n1 [Compound 281, N-[3-Fluoro-4-[(6-methoxy-1,5-naphthyridin-4-yl)oxy]phenyl]-1-(4-fluorophenyl)-4,6-dimethyl-2-oxopyridine-3-carboxamide] | < 100 | < 100 | < 100 | < 100 |
| COc1cc2nccc(Oc3ccc(NC(=O)c4cn(C)c(C)c(-c5ccc(F)cc5)c4=O)c(F)c3)c2nc1OC [Compound 389, N-[4-[(6,7-dimethoxy-1,5-naphthyridin-4-yl)oxy]-2-fluorophenyl]-5-(4-fluorophenyl)-1,6-dimethyl-4-oxopyridine-3-carboxamide] | > 300 | < 100 | > 300 | < 100 |
| COc1cnc2c(Oc3ccc(NC(=O)c4c(C)ccn(-c5ccc(F)cc5)c4=O)cc3F)ccnc2c1 [Compound 294, N-[3-Fluoro-4-[(7-methoxy-1,5-naphthyridin-4-yl)oxy]phenyl]-1-(4-fluorophenyl)-4-methyl-2-oxopyridine-3-carboxamide] | < 100 | < 100 | < 100 | < 100 |
| Cc1ncc(C(=O)Nc2ccc(Oc3ccnc4cc(-c5cnn(C(F)F)c5)ccc34)cc2)c(O)c1-c1ccc(F)cc1 [Compound 377, N-[4-[7-[1-(difluoromethyl)pyrazol-4-yl]quinolin-4-yl]oxyphenyl]-5-(4-fluorophenyl)-4-hydroxy-6-methylpyridine-3-carboxamide] | < 100 | < 100 | 100 to 300 | < 100 |
| COc1cnc2c(Oc3ccc(NC(=O)c4nccn(-c5ccc(F)cc5)c4=O)cc3F)ccnc2c1 [Compound 381, N-[3-fluoro-4-[(7-methoxy-1,5-naphthyridin-4-yl)oxy]phenyl]-4-(4-fluorophenyl)-3-oxopyrazine-2-carboxamide] | > 300 | < 100 | < 100 | < 100 |
| COc1cc2nccc(Oc3ccc(NC(=O)c4cc(C(C)C)c(C)n(-c5ccc(F)cc5)c4=O)cc3F)c2nc1OC [Compound 368, N-[4-[(6,7-dimethoxy-1,5-naphthyridin-4-yl)oxy]-3-fluorophenyl]-1-(4-fluorophenyl)-6-methyl-2-oxo-5-propan-2-ylpyridine-3-carboxamide] | 100 to 300 | < 100 | < 100 | < 100 |
